The nature of data set [1]: Chemical and physical storage stability of the crystalline free base. It counts as physicochemical. The note with it: crystalline form, 25° C. and 60% Relative Humidity (RH). The method, then: (§1) 1-(4-{[4-(Dimethylamino)piperidin-1-yl]carbonyl}phenyl)-3-[4-(4,6-dimorpholin-4-yl-1,3,5-triazin-2-yl)phenyl]urea may be prepared in crystalline form and is chemically and physically stable at 25° C. and 60% Relative Humidity (RH) for up to 3 years in this form.

For data set [2] the following is noted: only with lactic acid and orthophosphoric acid, of ten acids tested; WO2016/097949; cited from earlier work.
A short description of data set [3]: Visual analysis (European Pharmacopoeia Method 2.9.20) and OPM analysis for crystallites or particles (clear solution). It counts as physicochemical. The note with it: for Solution concentration at which the necessary clear solutions are not obtained, or are not obtained consistently: pH required for intravenous administration. From the text: A “clear solution” is defined herein as a visually clear solution, which may bear a solution opalescence, that is essentially free from any visible particulates that can be observed on a visual inspection. Generally, if any particulate matter is observed, the formulation is not suitable for intravenous administration and should not be utilised as occlusion of blood vessels may occur. Accordingly, in view of the qualitative nature of the visual test, the term “essentially free from any visible particulates” is usually applied when no visible particulate matter is observed.
The visual inspection can be conducted in accordance with the method defined in European Pharmacopoeia Method 2.9.20 entitled “Particulate contamination: visible particles”. This method determines particulate contamination of injections and infusions by extraneous, mobile, undissolved particles, other than gas bubbles, that may be present in the solutions. […]
A sample of the formulation was analysed in accordance with the visual method defined in European Pharmacopoeia Method 2.9.20 (using a Verivide (trade mark) light cabinet and a light meter reading of 3250 lux against a matt black panel and a white panel) to determine if crystallites or particles were present. […]
A sample of the formulation was placed on a clean glass microscopy slide and covered with a glass cover slip. It was then analysed by OPM using both non-polarised and cross-polarised light under a Nikon LV 100POL (trade mark) microscope with a 10× magnification lens and a 10× magnification eyepiece to determine if crystallites or particles were present. The image was recorded using a DFK 23UP031 TIS USB 3.0 CMOS (trade mark) Colour Industrial Camera 5MP 1/2,5″ and image capture software. […]
These Examples were analysed by the visual method defined in European Pharmacopoeia Method 2.9.20 and the OPM method both as described in Example 1.
The Examples shown in the following Table were analysed by the visual method defined in European Pharmacopoeia Method 2.9.20 and the OPM method both as described in Example 1. […]

Data set [4] can be described thus: Water solubility of the free base. The class given is physicochemical. The note with it: for an aqueous solution formulation for intravenous or parenteral administration at the therapeutic dosage levels required. The method, then: as §1

The source of these data is patent publication US12642803B2, “Pharmaceutical aqueous formulation comprising 1-(4-{[4-(dimethylamino)piperidin-1-yl]carbonyl}phenyl)-3-[4-(4,6-dimorpholin-4-yl-1,3,5-triazin-2-yl)phenyljurea” (PFIZER INC., priority 2017, dated 2026).

For the molecule `CN(C)C1CCN(C(=O)c2ccc(NC(=O)Nc3ccc(-c4nc(N5CCOCC5)nc(N5CCOCC5)n4)cc3)cc2)CC1` [1-(4-{[4-(Dimethylamino)piperidin-1-yl]carbonyl}phenyl)-3-[4-(4,6-dimorpholin-4-yl-1,3,5-triazin-2-yl)phenyl]urea], the “Time for which chemically and physically stable” value in data set [1] was “up to 3 years”. The “Concentration achieved as a clear solution” value in data set [2] was at least 3000 µg/mL. For the same molecule, the “Solution concentration at which the necessary clear solutions are not obtained, or are not obtained consistently” value in data set [3] (formulations comprising ethanesulphonic acid) and in data set [3] (formulations comprising methanesulphonic acid) was at least 35 mg/mL throughout. Also, in data set [3] (use of methanesulphonic acid and ethanesulphonic acid, free base concentration), the “Solution concentration achieved as clear, essentially particle-free solution” value was “up to 30 mg/ml”. Further, the Water solubility entry in data set [4] is given as “insufficiently water soluble”.
